Target: T1, human dopamine β-hydroxylase (Homo sapiens, UniProt P09172)
T1 construct: Human secretory DBH was purified from the culture medium of the neuroblastoma cell line SK-N-SH; endogenous in cells; host or cells: SK-N-SH neuroblastoma cells (enzyme secreted into the culture medium, purified on lentil lectin-sepharose)
T1 sequence (P09172 40-617 limits assumed): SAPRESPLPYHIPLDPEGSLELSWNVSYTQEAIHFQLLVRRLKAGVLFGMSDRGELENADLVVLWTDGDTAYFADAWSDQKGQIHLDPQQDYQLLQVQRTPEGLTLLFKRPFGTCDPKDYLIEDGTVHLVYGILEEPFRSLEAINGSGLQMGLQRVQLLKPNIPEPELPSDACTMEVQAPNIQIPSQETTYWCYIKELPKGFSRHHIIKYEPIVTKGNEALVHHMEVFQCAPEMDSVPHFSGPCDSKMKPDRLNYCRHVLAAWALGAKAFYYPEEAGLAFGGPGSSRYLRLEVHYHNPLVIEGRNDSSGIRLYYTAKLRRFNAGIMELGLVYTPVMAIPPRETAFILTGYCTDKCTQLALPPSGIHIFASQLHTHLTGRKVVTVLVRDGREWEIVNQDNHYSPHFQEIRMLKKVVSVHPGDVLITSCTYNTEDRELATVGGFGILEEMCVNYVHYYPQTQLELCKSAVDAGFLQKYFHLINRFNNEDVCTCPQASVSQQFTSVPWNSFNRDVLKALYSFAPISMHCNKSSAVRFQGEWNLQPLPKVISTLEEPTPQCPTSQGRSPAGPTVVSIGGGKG
Test: DBH assay, conversion of tyramine to octopamine
Type: biochemical
Method: Bovine and human dopamine β-hydroxylase activity were assayed by measuring the conversion of tyramine to octopamine. Bovine adrenal dopamine β-hydroxylase was obtained from Sigma Chemicals (St Louis, Mo., USA) whereas human dopamine β-hydroxylase was purified from the culture medium of the neuroblastoma cell line SK-N-SH. The assay was performed at pH 5.2 and 32° C. in a medium containing 0.125 M NaAc, 10 mM fumarate, 0.5-2 μM CuSO4, 0.1 mg·ml^−1 catalase, 0.1 mM tyramine and 4 mM ascorbate. In a typical assay, 0.5-1 milliunits of enzyme were added to the reaction mixture and, subsequently, a substrate mixture containing catalase, tyramine and ascorbate was added to initiate the reaction (final volume of 200 μl). Samples were incubated with or without the appropriate concentration of nepicastat or Compound B at 37° C. for 30 to 40 minutes. The reaction was quenched by the stop solution containing 25 mM EDTA and 240 μM 3-hydroxytyramine (internal standard). The samples were analyzed for octopamine by reverse phase high pressure liquid chromatography (HPLC) using ultraviolet-detection at […]. The HPLC chromatography run was carried out at the flow rate of 1 ml·min^−1 using a LiChroCART 125-4 RP-18 column and isocratic elution with 10 mM acidic acid, 10 mM 1-heptane sulfonic acid, 12 mM tetrabutyl ammonium phosphate and 10% methanol. The remaining percent activity was calculated based on controls, corrected using internal standards and fitted to a non-linear four-parameter concentration-response curve.
DBH activity was assayed by measuring the conversion of tyramine to octopamine. Bovine DBH from adrenal glands was obtained from Sigma Chemical Co (St Louis, Mo.). Human secretory DBH was purified from the culture medium of the neuroblastoma cell line SK-N-SH. The assay was performed at pH 5.2 and 32° C. in 0.125 M NaOAc, 10 mM fumarate, 0.5-2 μM CUSO4, 0.1 mg/mL catalase, 0.1 mM tyramine and 4 mM ascorbate. In a typical assay, 0.5-1 milliunits of enzyme were added to the reaction mixture and then a substrate mixture containing catalase, tyramine and ascorbate was added to initiate the reaction (final volume of 200 μL). Samples were incubated with or without the appropriate concentration of the inhibitor at 37° C. for 30-40 min. The reaction was quenched by the stop solution containing 25 mM EDTA and 240 μM 3-hydroxytyramine (internal standard). The samples were analyzed for octopamine by reverse phase HPLC using UV detection at […]. The remaining percent activity was calculated based on controls (without inhibitor), corrected using internal standards and fitted to a non-linear 4-parameter concentration-response curve to obtain IC50 values.
Bovine DBH from adrenal glands was obtained from Sigma Chemicals (St. Louis, Mo.). Human secretory DBH was purified from the culture medium of the neuroblastoma cell line SK-N-SH and was used to obtain the inhibition data. A lentil lectin-sepharose column containing 25 ml gel was prepared and equilibrated with 50 mM KH2PO4, pH 6.5, 0.5 M NaCl. The column was eluted with 35 ml of 10% methyl a, D-mannopyranoside in 50 mM KH2PO4, pH 6.5, 0.5 M NaCl at 0.5 ml/min. Fraction containing most enzymatic activities were pooled and concentrated with an Amicon stirred cell using a YM30 membrane. Methyl a, D-mannopyranoside was removed by buffer exchange with in 50 mM KH2PO4, pH 6.5, 0.1M NaCl. The concentrated enzyme solution was aliquoted and stored at −25° C.
An HPLC assay was used to measure DBH activity using tyramine and ascorbate as substrates. […]

SMILES | selectivity for dopamine-β-hydroxylase over the other enzymes studied | potency of nepicastat relative to SKF-102698 (human DBH) | potency of nepicastat relative to SKF-102698 (human and bovine DBH) | potency of nepicastat relative to the R-enantiomer (human and bovine DBH) | potency of nepicastat relative to Compound B (human enzyme) | IC50 (0.1 mM tyramine, 4 mM ascorbate, pH 5.2)
Cl.NCc1c[nH]c(=S)n1[C@H]1CCc2c(F)cc(F)cc2C1 [nepicastat, (S)-5-Aminomethyl-1-(5,7-difluoro-1,2,3,4-tetrahydronaphth-2-yl)-2,3-dihydro-2-thioxo-1H-imidazole hydrochloride] | > 1000 fold | 9 fold | 8-9 fold | 2-3 fold | 2 fold | –
Fc1cc(F)cc(Cn2cc[nH]c2=S)c1 [SKF-102698, reference compound] | – | – | – | – | – | 85 ± 3.7 nM

Source: patent publication US10561638B2, “Methods for treating dependence” (Biotie Therapies, Inc., priority 2007, dated 2020)
